Our source for the IC50 values is patent publication US9493444B2 (Merck Patent GmbH, priority 2012, dated 2016).

Structures are written as SMILES.

This assay deals with Wnt pathway (TCF-dependent transcription in HEK293 luciferase reporter cell line with ER-DSH construct). Put plainly: Cellular assay for Wnt pathway activity (luciferase reporter). The assay is classed as cell-based. Conditions: Homo sapiens; Wnt pathway inhibition, HEK293 luciferase reporter cells (ER-DSH, TCF promoter), 24 hours incubation, estrogen-induced. The gist of the method: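 Compounds (30 μM down to 1 nM) were incubated 24 h on cells induced for TCF-dependent transcription with estrogen. Luciferase activity was read by luminescence, normalized to untreated vehicle control, and fitted for IC50.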
For orientation: A reporter such as luciferase makes a cellular process visible.
A word on the IC50: it is the concentration at which inhibition is half-maximal. A lower IC50 goes with greater potency. Take `CC(=O)N(C)CCN(C)c1cncc(Oc2ccc(-c3cc(Br)cnc3N)cc2)n1` [Compound 252, N-[2-({6-[4-(2-Amino-5-bromo-pyridin-3-yl)-phenoxy]-pyrazin-2-yl}-methyl-amino)-ethyl]-N-methyl-acetamide]: the concentration for half-maximal inhibition (IC50) lay in the range of 200 to 1000 nM.
`CC(=O)N(C)CCN(C)c1cncc(Oc2ccc(-c3cccc(N4CCN(C)CC4)n3)cc2F)n1` [Compound 253, N-{2-[(6-{2-Fluoro-4-[6-(4-methyl-piperazin-1-yl)-pyridin-2-yl]-phenoxy}-pyrazin-2-yl)-methyl-amino]-ethyl}-N-methyl-acetamide]: the half-maximal inhibitory concentration (IC50) was below 200 nM.
The same measure for `CC(=O)N(C)CCNc1cncc(Oc2ccc(-c3ccc(CO)nc3)cc2)n1` [Compound 254, N-(2-{6-[4-(6-Hydroxy-methyl-pyridin-3-yl)-phenoxy]-pyrazin-2-ylamino}-ethyl)-N-methyl-acetamide]: 200 to 1000 nM.
The same measure for `CC(=O)N(C)CCNc1cncc(Oc2ccc(-c3ccncc3)cc2)n1` [Compound 255, N-Methyl-N-{2-[6-(4-pyridin-4-yl-phenoxy)-pyrazin-2-ylamino]-ethyl}-acetamide]: 1000 to 10000 nM; for `CC(=O)N(C)CCN(C)c1cncc(Oc2ccc(-c3ccn(C)n3)c(F)c2F)n1` [Compound 256, N-[2-({6-[2,3-Difluoro-4-(1-methyl-1H-pyrazol-3-yl)-phenoxy]-pyrazin-2-yl}-methyl-amino)-ethyl]-N-methyl-acetamide]: 200 to 1000 nM; for `CC(=O)N(C)CCNc1cncc(Oc2ccc(-c3ccncc3C#N)cc2F)n1` [Compound 257, N-(2-{6-[4-(3-Cyano-pyridin-4-yl)-2-fluoro-phenoxy]-pyrazin-2-ylamino}-ethyl)-N-methyl-acetamide]: 200 to 1000 nM.
For `CC(=O)Nc1ccc(-c2ccc(Oc3cncc(NCCN(C)C(C)=O)n3)c(F)c2)cn1` [Compound 258, N-[5-(4-{6-[2-(Acetyl-methyl-amino)-ethylamino]-pyrazin-2-yloxy}-3-fluoro-phenyl)-pyridin-2-yl]-acetamide], the IC50 lay in the range of 200 to 1000 nM.
The compound `CC(=O)Nc1cccc(-c2ccc(Oc3cncc(NCCN(C)C(C)=O)n3)c(F)c2)n1` [Compound 259, N-(2-{6-[4-(6-Acetylamino-pyridin-2-yl)-2-fluoro-phenoxy]-pyrazin-2-ylamino}-ethyl)-N-methyl-acetamide] had a half-maximal inhibitory concentration (IC50) of 1000 to 10000 nM.
The result for `CC(=O)Nc1ccc(-c2ccc(Oc3cncc(NCCN(C)C(C)=O)n3)cc2)cn1` [Compound 260, N-(2-{6-[4-(6-Acetylamino-pyridin-3-yl)-phenoxy]-pyrazin-2-ylamino}-ethyl)-N-methyl-acetamide] reads 200 to 1000 nM; that for `CC(=O)N(C)CCN(C)c1cncc(Oc2ccc(-c3ccnnc3)cc2)n1` [Compound 261, N-Methyl-N-(2-{methyl-[6-(4-pyridazin-4-yl-phenoxy)-pyrazin-2-yl]-amino}-ethyl)-acetamide], below 200 nM; that for `CC(=O)N(C)CCNc1cncc(Oc2ccc(-c3ccc(F)cn3)cc2)n1` [Compound 262, N-(2-{6-[4-(5-Fluoro-pyridin-2-yl)-phenoxy]-pyrazin-2-ylamino}-ethyl)-N-methyl-acetamide], 1000 to 10000 nM.
Compound `Nc1cnc(-c2ccc(Oc3cncc(CCCN4CCCCC4=O)n3)cc2)cn1` [Compound 263, 1-(3-{6-[4-(5-Amino-pyrazin-2-yl)-phenoxy]-pyrazin-2-yl}-propyl)-piperidin-2-one] had an IC50 below 200 nM.
The result for `CC(=O)N(C)CCCc1cncc(Oc2ccc(F)cc2)n1` [Compound 264, N-{3-[6-(4-Fluoro-phenoxy)-pyrazin-2-yl]-propyl}-N-methyl-acetamide] reads 1000 to 10000 nM; that for `CNCc1ccc(-c2ccc(Oc3cncc(N(C)CCN(C)C(C)=O)n3)cc2)cn1` [Compound 265, N-Methyl-N-[2-(methyl-{6-[4-(6-methylaminomethyl-pyridin-3-yl)-phenoxy]-pyrazin-2-yl}-amino)-ethyl]-acetamide], below 200 nM.
